Positions of bridges follow the written chain, without caps; N, C: chain ends. Non-standard residues stand in square brackets, D forms with d. Residues, ends and D or L forms follow the SMILES beside them. Cha = N[C@@H](CC1CCCCC1)C(=O)O; Orn = NCCC[C@H](N)C(=O)O; Dab = NCC[C@H](N)C(=O)O; Dap = NC[C@H](N)C(=O)O; Mpa = O=C(O)CCS
Tests used:
[1] = target: T1, Oxytocin receptor (Homo sapiens) (UniProt P30559); test: (§1) Activity at OT receptor assessed as oxytocic activity in absence of magnesium; format: functional; conditions: filed as agonist
T1 sequence (whole entry): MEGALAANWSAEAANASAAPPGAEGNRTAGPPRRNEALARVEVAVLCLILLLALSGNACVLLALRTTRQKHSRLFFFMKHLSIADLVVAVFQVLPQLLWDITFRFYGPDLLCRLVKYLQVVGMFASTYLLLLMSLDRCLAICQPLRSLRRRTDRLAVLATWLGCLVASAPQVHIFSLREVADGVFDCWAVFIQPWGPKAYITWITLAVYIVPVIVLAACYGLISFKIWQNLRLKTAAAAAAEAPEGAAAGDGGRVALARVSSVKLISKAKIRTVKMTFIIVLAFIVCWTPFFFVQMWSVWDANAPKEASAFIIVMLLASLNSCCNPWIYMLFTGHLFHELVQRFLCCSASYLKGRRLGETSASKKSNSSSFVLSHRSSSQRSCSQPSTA

[2] = target: Vasopressin V2 receptor (Rattus norvegicus) (UniProt Q00788); test: Activity at vasopressin V2 receptor in rat kidney membranes assessed as maximal adenylate cyclase activity relative to AVP; format: functional, cell membranes; conditions: Membrane, filed as agonist
Vasopressin V1a receptor = Vasopressin V1a receptor (Rattus norvegicus, UniProt P30560); test: Displacement of [3H]AVP from vasopressin V1a receptor in rat liver membrane; format: cell membranes
Rattus norvegicus [3] = species on record: Rattus norvegicus; test: Vasopressor activity in rat; format: functional
Vasopressin V2 receptor = Vasopressin V2 receptor (Rattus norvegicus, UniProt Q00788); test: Displacement of [3H]AVP from vasopressin V2 receptor in rat kidney membranes; format: cell membranes, Membrane
[4] = target: Vasopressin V2 receptor (Rattus norvegicus) (UniProt Q00788); test: Activity at vasopressin V2 receptor in rat kidney membranes assessed as adenylate cyclase activity; format: functional, cell membranes; conditions: Membrane, filed as agonist
Oxytocin receptor [5] = target: T2, Oxytocin receptor (Rattus norvegicus, UniProt P70536); test: Displacement of [3H]AVP from rat OT receptor expressed in CHO cells; format: cell-based
T2 sequence (P70536 whole entry): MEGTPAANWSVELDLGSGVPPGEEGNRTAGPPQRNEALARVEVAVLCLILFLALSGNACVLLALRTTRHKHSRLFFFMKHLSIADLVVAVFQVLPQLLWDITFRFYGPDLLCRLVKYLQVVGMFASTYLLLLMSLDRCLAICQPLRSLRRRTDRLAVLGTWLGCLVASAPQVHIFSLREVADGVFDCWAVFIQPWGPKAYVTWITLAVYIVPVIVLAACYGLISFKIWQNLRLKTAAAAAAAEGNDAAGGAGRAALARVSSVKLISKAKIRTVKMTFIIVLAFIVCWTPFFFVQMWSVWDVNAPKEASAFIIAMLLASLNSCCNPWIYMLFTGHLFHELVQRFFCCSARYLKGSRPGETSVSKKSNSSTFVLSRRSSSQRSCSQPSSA

Rattus norvegicus [6] = species on record: Rattus norvegicus; test: Antidiuretic activity in rat; format: functional, Urine
Oxytocin receptor [7] = target: T3, Oxytocin receptor (Homo sapiens, UniProt P30559); test: as §1; format: functional; conditions: read-out: pA2 (converted)
T3 sequence (P30559 whole entry): T1 sequence (whole entry)

[8] = target: T4, Vasopressin V1b receptor (Rattus norvegicus) (UniProt P48974); conditions: AtT20, filed as agonist
T4 sequence (whole entry): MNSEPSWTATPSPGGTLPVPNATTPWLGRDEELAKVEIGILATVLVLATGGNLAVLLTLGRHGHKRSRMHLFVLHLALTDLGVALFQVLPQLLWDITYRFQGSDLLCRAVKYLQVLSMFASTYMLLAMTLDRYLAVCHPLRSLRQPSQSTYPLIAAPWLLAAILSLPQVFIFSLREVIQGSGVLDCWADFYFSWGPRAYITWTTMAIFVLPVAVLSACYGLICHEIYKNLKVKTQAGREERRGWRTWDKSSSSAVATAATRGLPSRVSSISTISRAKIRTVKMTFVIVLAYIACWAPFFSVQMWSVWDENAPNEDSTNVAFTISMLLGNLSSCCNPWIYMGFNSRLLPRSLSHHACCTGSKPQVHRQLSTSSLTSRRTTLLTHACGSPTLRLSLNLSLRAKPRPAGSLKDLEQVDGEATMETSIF

Vasopressin V2 receptor (Rattus norvegicus), sequence (Q00788 whole entry): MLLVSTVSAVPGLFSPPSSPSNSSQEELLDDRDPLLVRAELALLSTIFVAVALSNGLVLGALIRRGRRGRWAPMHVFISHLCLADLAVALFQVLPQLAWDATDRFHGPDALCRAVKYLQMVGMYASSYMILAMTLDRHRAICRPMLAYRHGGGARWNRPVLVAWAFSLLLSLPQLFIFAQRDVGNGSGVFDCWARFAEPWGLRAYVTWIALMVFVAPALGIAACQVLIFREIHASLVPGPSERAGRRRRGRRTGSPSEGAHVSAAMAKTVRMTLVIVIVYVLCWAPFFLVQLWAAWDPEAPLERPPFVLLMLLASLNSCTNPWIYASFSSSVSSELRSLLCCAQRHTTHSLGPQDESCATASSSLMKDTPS
Vasopressin V2 receptor, sequence (Q00788 whole entry): as above
Vasopressin V1a receptor, sequence (P30560 whole entry): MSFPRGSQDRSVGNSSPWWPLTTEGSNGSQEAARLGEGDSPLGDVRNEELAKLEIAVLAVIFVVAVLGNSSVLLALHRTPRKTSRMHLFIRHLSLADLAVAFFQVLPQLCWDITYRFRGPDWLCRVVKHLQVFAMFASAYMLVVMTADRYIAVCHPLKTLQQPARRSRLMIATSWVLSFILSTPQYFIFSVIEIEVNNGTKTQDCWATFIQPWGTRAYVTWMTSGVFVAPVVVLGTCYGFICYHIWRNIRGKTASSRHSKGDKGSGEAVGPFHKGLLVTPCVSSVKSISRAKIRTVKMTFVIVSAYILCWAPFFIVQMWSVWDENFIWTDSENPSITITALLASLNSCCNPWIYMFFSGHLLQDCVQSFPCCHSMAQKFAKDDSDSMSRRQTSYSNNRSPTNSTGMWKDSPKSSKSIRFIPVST

| Compound | Activity [1] [U/mg] | Activity [2] [%] | Ki (Vasopressin V1a receptor) | Ki (Vasopressin V2 receptor) | Kact [4] [nM] | Ki (Oxytocin receptor [5]) | Kb (Oxytocin receptor [7]) | Activity (Rattus norvegicus [3]) [U/mg] | Activity (Rattus norvegicus [6]) [U/mg] | Kact [8] [nM] |
| --- | --- | --- | --- | --- | --- | --- | --- | --- | --- | --- |
| CC(C)C[C@@H]1NC(=O)[C@H](Cc2ccccc2)NC(=O)[C@H](Cc2ccc(O)cc2)NC(=O)CCSSC[C@@H](C(=O)N2CCC[C@H]2C(=O)N[C@@H](CCCCN)C(=O)NCC(N)=O)NC(=O)[C@H](CC(N)=O)NC1=O ([Mpa]YFLNCPKG-NH2; disulfide 1-6) | 0.054 | 76 | 3800 nM (antagonist) | 100 nM (antagonist) | 196 | 64 nM (antagonist) | – | 0.9 | 10.5 | – |
| CC(C)C[C@@H]1NC(=O)[C@H](Cc2ccccc2)NC(=O)[C@H](Cc2ccc(O)cc2)NC(=O)CCSSC[C@@H](C(=O)N2CCC[C@H]2C(=O)N[C@@H](CN)C(=O)NCC(N)=O)NC(=O)[C@H](CC(N)=O)NC1=O ([Mpa]YFLNCP[Dap]G-NH2; disulfide 1-6) | 0.046 | 97 | 3300 nM (antagonist) | 240 nM (antagonist) | 300 | 134 nM (antagonist) | – | 0.05 | 0.7 | – |
| NC(=O)CNC(=O)[C@H](CCCN=C(N)N)NC(=O)[C@@H]1CCCN1C(=O)[C@@H]1CSSCCC(=O)N[C@@H](Cc2ccc(O)cc2)C(=O)N[C@@H](Cc2ccccc2)C(=O)N[C@@H](CC2CCCCC2)C(=O)N[C@@H](CC(N)=O)C(=O)N1 ([Mpa]YF[Cha]NCPRG-NH2; disulfide 1-6) | – | 86 | 2300 nM (antagonist) | 12.7 nM (antagonist) | – | – | – | 0.067 | 133.6 | – |
| NCCCC[C@H](NC(=O)[C@@H]1CCCN1C(=O)[C@@H]1CSSCCC(=O)N[C@@H](Cc2ccc(O)cc2)C(=O)N[C@@H](Cc2ccccc2)C(=O)N[C@@H](CCCN)C(=O)N[C@@H](CC(N)=O)C(=O)N1)C(=O)NCC(N)=O ([Mpa]YF[Orn]NCPKG-NH2; disulfide 1-6) | 3.1 | – | 2800 nM (antagonist) | 51 nM (antagonist) | – | 22 nM (antagonist) | – | 0.23 | 7.8 | – |
| NCCC[C@@H]1NC(=O)[C@H](Cc2ccccc2)NC(=O)[C@H](Cc2ccc(O)cc2)NC(=O)CCSSC[C@@H](C(=O)N2CCC[C@H]2C(=O)N[C@@H](CCCN)C(=O)NCC(N)=O)NC(=O)[C@H](CC(N)=O)NC1=O ([Mpa]YF[Orn]NCP[Orn]G-NH2; disulfide 1-6) | 2.8 | – | 1300 nM (antagonist) | 76 nM (antagonist) | – | 37 nM (antagonist) | – | 1.9 | 7.9 | – |
| N=C(N)NCCC[C@H](NC(=O)[C@@H]1CCCN1C(=O)[C@@H]1CSSC[C@H](N)C(=O)N[C@@H](Cc2ccc(O)cc2)C(=O)N[C@@H](Cc2ccccc2)C(=O)N[C@@H](CCC(N)=O)C(=O)N[C@@H](CC(N)=O)C(=O)N1)C(=O)NCC(N)=O [VASOPRESSIN] | – | – | – | – | 0.32 | – | – | – | 323 | 2.3 |

Further lines, with some results ahead:

| Activity [1] [U/mg] | Activity [2] [%] | Ki (Vasopressin V1a receptor) | Ki (Vasopressin V2 receptor) | Kact [4] [nM] | Ki (Oxytocin receptor [5]) | Kb (Oxytocin receptor [7]) | Compound | Activity (Rattus norvegicus [3]) [U/mg] | Activity (Rattus norvegicus [6]) [U/mg] | Kact [8] [nM] |
| --- | --- | --- | --- | --- | --- | --- | --- | --- | --- | --- |
| – | – | 9100 nM (antagonist) | 600 nM (antagonist) | – | 590 nM (antagonist) | 331 nM (agonist) | NCCCC[C@H](NC(=O)[C@@H]1CCCN1C(=O)[C@@H]1CSSCCC(=O)N[C@@H](Cc2ccc(O)cc2)C(=O)N[C@@H](Cc2ccccc2)C(=O)N[C@@H](CC2CCCCC2)C(=O)N[C@@H](CC(N)=O)C(=O)N1)C(=O)NCC(N)=O ([Mpa]YF[Cha]NCPKG-NH2; disulfide 1-6) | 0.043 | 0.82 | – |
| – | 75 | 4400 nM (antagonist) | 450 nM (antagonist) | 174 | 430 nM (antagonist) | 447 nM (agonist) | NCC[C@H](NC(=O)[C@@H]1CCCN1C(=O)[C@@H]1CSSCCC(=O)N[C@@H](Cc2ccc(O)cc2)C(=O)N[C@@H](Cc2ccccc2)C(=O)N[C@@H](CC2CCCCC2)C(=O)N[C@@H](CC(N)=O)C(=O)N1)C(=O)NCC(N)=O ([Mpa]YF[Cha]NCP[Dab]G-NH2; disulfide 1-6) | 0.18 | 1 | – |
| – | – | 1800 nM (antagonist) | 1050 nM (antagonist) | – | 1200 nM (antagonist) | 479 nM (agonist) | NC[C@H](NC(=O)[C@@H]1CCCN1C(=O)[C@@H]1CSSCCC(=O)N[C@@H](Cc2ccc(O)cc2)C(=O)N[C@@H](Cc2ccccc2)C(=O)N[C@@H](CC2CCCCC2)C(=O)N[C@@H](CC(N)=O)C(=O)N1)C(=O)NCC(N)=O ([Mpa]YF[Cha]NCP[Dap]G-NH2; disulfide 1-6) | 0.002 | 0.3 | – |
| – | – | 2900 nM (antagonist) | 450 nM (antagonist) | – | 550 nM (antagonist) | 282 nM (agonist) | NCCC[C@H](NC(=O)[C@@H]1CCCN1C(=O)[C@@H]1CSSCCC(=O)N[C@@H](Cc2ccc(O)cc2)C(=O)N[C@@H](Cc2ccccc2)C(=O)N[C@@H](CC2CCCCC2)C(=O)N[C@@H](CC(N)=O)C(=O)N1)C(=O)NCC(N)=O ([Mpa]YF[Cha]NCP[Orn]G-NH2; disulfide 1-6) | 0.22 | 1 | – |

Reference: ChEMBL document CHEMBL1141418 (J Med Chem, 2007)
